The values below come from patent US20060276498A1 (Wyeth, priority 2005, published 2006).

A value given as a limit tells only on which side of the number the result lay.

In the experiment the target is T1, human Cot/Tpl2 kinase (Homo sapiens, UniProt P41279).
T1 construct: human Cot/Tpl2 kinase construct encoding residues 30-398; 6His (N); made in house; host or cells: Sf9 insect cells (baculovirus system, BD Biosciences)
In words: Tpl2/Cot kinase assay, GST-MEK1 phosphorylation detected by ELISA (DELFIA Eu). Format: biochemical. On the procedure: Sf9 cells expressing the kinase were lysed in 50 mM NaPhosphate pH=8; 300 mM NaCl; 5 mM imidazole; 0.1 mM EGTA; 25 mM beta-glycerophosphate; 1% TX-100, 1% glycerol; 6 mM beta-mercaptoethanol and protease inhibitors. The lysate was clarified by centrifugation and was loaded onto a Ni-Sepharose column. The column was washed with 50 mM NaPhosphate pH=8; 300 mM NaCl; 15 mM imidazole; 1% glycerol; and 6 mM beta-mercaptoethanol. His-Tpl2 was eluted with 50 mM NaPhosphate pH=8; 300 mM NaCl; 250 mM imidazole; 1% glycerol; and 6 mM beta-mercaptoethanol. The eluted protein was further purified by size exclusion chromatography. Fractions corresponding to monomeric Tpl2 were then used in the assay.
Tpl2/Cot activity was directly assayed using GST-MEK1 as a substrate. GST-MEK1 phosphorylation on serine residues 217 and 221 was detected by ELISA. 0.4 nM Tpl2 was incubated with 35 nM GST-MEK1 in a kinase reaction buffer containing 20 mM MOPS pH=7.2; 50 uM ATP; 20 mM MgCl2; 1 mM DTT; 25 mM β-glycerophosphate; 5 mM EGTA; and 1 mM sodium orthovanadate for 1 h at 30° C. The compounds of the inventions solubilized in 100% DMSO were pre-diluted in assay buffer so that the final concentration of DMSO in the reaction was 1%. The kinase reaction was carried out in 100 ul volume on 96 well plates. The kinase reaction was then stopped with the addition of 100 mM EDTA. […] After a 1 hour incubation at room temperature, the detection plate was washed 4 times with TBST (TBS+0.05% Tween 20) and then incubated for another hour at room temperature with anti phospho-MEK1 antibody (Cell Signaling) 1:1000 in 10 mM MOPS 7.5; 150 mM NaCl; 0.05% Tween 20; 0.1% Gelatin; 0.02% NaN3; and 1% BSA. The detection plate was washed again and incubated for 30 min with DELFIA Europium (Eu) labeled goat anti-rabbit IgG (Perkin-Elmer), 1:4000 in the same buffer used for the primary incubation. After a final wash, Eu detection solution was added to each well and the Eu signal was measured in a Wallac Victor^2 Multilabel Counter. IC50 calculations were preformed using the XLfit software package (IDBS, Guildford, UK).

Where [1] appears, read: Table 2, additional representative compounds.
Where [2] appears, read: Table 1, 0.4 nM Tpl2, 35 nM GST-MEK1, 50 uM ATP, 1 h at 30° C.

T1 sequence (P41279 30-398): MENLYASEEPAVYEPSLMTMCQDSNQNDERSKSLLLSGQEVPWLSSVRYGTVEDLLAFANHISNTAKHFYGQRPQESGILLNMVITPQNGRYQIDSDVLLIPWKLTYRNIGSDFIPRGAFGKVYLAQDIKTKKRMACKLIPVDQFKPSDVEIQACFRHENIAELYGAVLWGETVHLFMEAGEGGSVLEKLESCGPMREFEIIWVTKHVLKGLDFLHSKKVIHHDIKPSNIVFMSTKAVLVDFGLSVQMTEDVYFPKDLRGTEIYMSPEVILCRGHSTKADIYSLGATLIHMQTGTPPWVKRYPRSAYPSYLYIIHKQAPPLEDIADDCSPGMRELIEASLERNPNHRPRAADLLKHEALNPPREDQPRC

Broadly, the IC50 is the concentration needed to halve the response being measured. For the molecule `C[C@@H](Nc1cc2c(N[C@H](C)c3ccccc3)c(C#N)cnc2cn1)c1ccccc1` [Example 131, 4,6-bis{[(1R)-1-phenylethyl]amino}-1,7-naphthyridine-3-carbonitrile], the concentration for half-maximal inhibition (IC50) under setting [1] amounted to 560 nM.

`N#Cc1cnc2cnc(NCCN3CCOCC3)cc2c1Nc1cccc(I)c1` [Example 78, 4-(3-iodophenylamino)-6-(2-morpholinoethylamino)-1,7-naphthyridine-3-carbonitrile] yielded an IC50 under setting [2] of 7100 nM.

Under setting [2], `N#Cc1cnc2cnc(NCCN3CCOCC3)cc2c1Nc1cccc(N)c1` [Example 82, 4-(3-aminophenylamino)-6-(2-morpholinoethylamino)-1,7-naphthyridine-3-carbonitrile] returned a half-maximal inhibitory concentration (IC50) above 10000 nM.

In turn, `C#CC(C)(C)Nc1c(C#N)cnc2cnc(NCc3cccnc3)cc12` [Example 138, 4-[(1,1-dimethylprop-2-ynyl)amino]-6-[(pyridin-3-ylmethyl)amino]-1,7-3-carbonitrile] gave an IC50 under setting [1] above 40000 nM.

In turn, `N#Cc1cnc2cnc(NC3CCCC3)cc2c1Nc1ccc(F)c(Cl)c1` [Example 94, 4-(3-Chloro-4-fluoro-phenylamino)-6-cyclopentylamino-[1,7]naphthyridine-3-carbonitrile] gave a 50% inhibitory concentration (IC50) under setting [2] of 7600 nM. This lies in the single-digit micromolar range.

Regarding `N#Cc1cnc2cnc(NCc3c(Cl)cccc3Cl)cc2c1NCc1c(Cl)cccc1Cl` [Example 127, 4,6-bis[(2,6-dichlorobenzyl)amino]-1,7-naphthyridine-3-carbonitrile], under setting [1], the half-maximal inhibitory concentration (IC50) was above 40000 nM.

As for `N#Cc1cnc2cnc(NCCN3CCOCC3)cc2c1Nc1cccc(Cl)c1` [Example 3, 4-(3-chlorophenylamino)-6-(2-morpholinoethylamino)-1,7-naphthyridine-3-carbonitrile], the IC50 under setting [2] worked out at 1160 nM. That is a single-digit micromolar value.

`N#Cc1cnc2cnc(NCCN3CCOCC3)cc2c1Nc1cccc(C(=O)O)c1` [Example 84, 3-(3-cyano-6-(2-morpholinoethylamino)-1,7-naphthyridin-4-ylamino)benzoic acid] returned an IC50 under setting [2] above 10000 nM.

Under setting [2], `CN(C)CCNc1cc2c(Nc3ccc(Cc4ccccc4)cc3)c(C#N)cnc2cn1` [Example 23, 4-(4-benzylphenylamino)-6-(2-(dimethylamino)ethylamino)-1,7-naphthyridine-3-carbonitrile] displayed a half-maximal inhibitory concentration (IC50) of 36 nM.

Under setting [1], `C[C@@H](Nc1cc2c(N(C)C3CCCCCC3)c(C#N)cnc2cn1)c1ccccc1` [Example 137, 4-[cycloheptyl(methyl)amino]-6-{[(1R)-1-phenylethyl]amino}-1,7-naphthyridine-3-carbonitrile] gave a half-maximal inhibitory concentration (IC50) above 40000 nM.

In the case of `N#Cc1cnc2cnc(NCCN3CCOCC3)cc2c1Nc1cccc(F)c1` [Example 24, 4-(3-fluorophenylamino)-6-(2-morpholinoethylamino)-1,7-naphthyridine-3-carbonitrile], half-maximal inhibition under setting [2] (IC50) was put at 1120 nM.

`N#Cc1cnc2cnc(NCc3cccnc3)cc2c1Nc1ccc(F)c(F)c1` [Example 20, 4-(3,4-difluorophenylamino)-6-(pyridin-3-ylmethylamino)-1,7-naphthyridine-3-carbonitrile] had a half-inhibitory concentration (IC50) under setting [2] of 290 nM.

With `N#Cc1cnc2cnc(NCc3cccnc3)cc2c1NC1CCCCCC1` [Example 113, 4-(cycloheptylamino)-6-[(pyridin-3-ylmethyl)amino]-1,7-naphthyridine-3-carbonitrile], under setting [1], half-maximal inhibition (IC50) required 160 nM.

Under setting [1], `CCN1CCC[C@H]1CNc1cc2c(NC3CCCC3)c(C#N)cnc2cn1` [Example 129, 4-(cyclopentylamino)-6-({[(2S)-1-ethylpyrrolidin-2-yl]methyl}amino)-1,7-naphthyridine-3-carbonitrile] had an IC50 of 2800 nM.

Under setting [2], `COC(=O)c1ccc(Nc2c(C#N)cnc3cnc(NCc4cccnc4)cc23)cc1` [Example 30, Methyl 4-(3-cyano-6-(pyridin-3-ylmethylamino)-1,7-naphthyridin-4-ylamino)benzoate] came in with an IC50 above 40000 nM.

As to `CCC(C)(C)Nc1c(C#N)cnc2cnc(NCc3cccnc3)cc12` [Example 135, 4-[(1,1-dimethylpropyl)amino]-6-[(pyridin-3-ylmethyl)amino]-1,7-naphthyridine-3-carbonitrile], 100 nM corresponded to half-maximal inhibition under setting [1] (IC50). This counts as sub-micromolar.

In the case of `CC(C)(C)Nc1cc2c(Nc3ccc(F)c(Cl)c3)c(C#N)cnc2cn1` [Example 143, 6-(tert-butylamino)-4-[(3-chloro-4-fluorophenyl)amino]-1,7-naphthyridine-3-carbonitrile], the IC50 under setting [1] is above 40000 nM.

`N#Cc1cnc2cnc(NCc3cccnc3)cc2c1NCc1cccnc1` [Example 145, 4,6-bis(pyridin-3-ylmethylamino)-1,7-naphthyridine-3-carbonitrile] registered an IC50 under setting [1] above 40000 nM.

`CN(c1ccc(F)c(Cl)c1)c1c(C#N)cnc2cnc(NCCN3CCOCC3)cc12` [Example 89, 4-((3-chloro-4-fluorophenyl)(methyl)amino)-6-(2-morpholinoethylamino)-1,7-naphthyridine-3-carbonitrile] had a concentration for half-maximal inhibition (IC50) under setting [2] above 40000 nM.

Turning to `C[C@@H](Nc1cc2c(Nc3cc(Cl)cc(Cl)c3)c(C#N)cnc2cn1)c1ccccc1` [Example 68], under setting [2], the IC50 came out at 940 nM. That is a sub-micromolar value.

On to `N#Cc1cnc2cnc(NCc3cccnc3)cc2c1NC1CCNCC1` [Example 116, 4-(piperidin-4-ylamino)-6-[(pyridin-3-ylmethyl)amino]-1,7-naphthyridine-3-carbonitrile], for which the IC50 under setting [1] is above 40000 nM.

In the case of `N#Cc1cnc2cnc(NCc3cccnc3)cc2c1Nc1ccc(Cl)c(Cl)c1` [Example 63, 4-[(3,4-dichlorophenyl)amino]-6-[(pyridin-3-ylmethyl)amino]-1,7-naphthyridine-3-carbonitrile], under setting [2], the IC50 is above 40000 nM.

As for `N#Cc1cnc2cnc(NCCN3CCOCC3)cc2c1Nc1cccc([N+](=O)[O-])c1` [Example 81, 6-(2-morpholinoethylamino)-4-(3-nitrophenylamino)-1,7-naphthyridine-3-carbonitrile], under setting [2], it took 270 nM to reach half-maximal inhibition (IC50).

Consider `CS(=O)(=O)c1ccc(CNc2cc3c(Nc4ccc(F)c(Cl)c4)c(C#N)cnc3cn2)cc1` [Example 125, 4-[(3-chloro-4-fluorophenyl)amino]-6-{[4-(methylsulfonyl)benzyl]amino}-1,7-naphthyridine-3-carbonitrile], for which the IC50 under setting [1] worked out at 23 nM.

For `N#Cc1cnc2cnc(NCc3cccnc3)cc2c1Nc1ccc(F)c(Cl)c1` [Example 1, 4-(3-chloro-4-fluorophenylamino)-6-(pyridin-3-ylmethylamino)-1,7-naphthyridine-3-carbonitrile], 50 nM corresponded to half-maximal inhibition under setting [2] (IC50). This lies in the double-digit nanomolar range.

`N#Cc1cnc2cnc(OCCN3CCOCC3)cc2c1Nc1ccc(F)c(Cl)c1` [Example 39, 4-[(3-chloro-4-fluorophenyl)amino]-6-(2-morpholin-4-ylethoxy)-1,7-naphthyridine-3-carbonitrile] came in with an IC50 under setting [2] above 40000 nM.

Under setting [2], `Cc1ccc(Nc2c(C#N)cnc3cnc(NCc4cccnc4)cc23)cc1Br` [Example 66, 4-[(3-bromo-4-methylphenyl)amino]-6-[(pyridine-3-ylmethyl)amino]-1,7-naphthyridine-3-carbonitrile] came in with a half-maximal inhibitory concentration (IC50) above 40000 nM.

`N#Cc1cnc2cnc(NCc3c(Cl)cccc3Cl)cc2c1Nc1ccc(F)c(Cl)c1` [Example 126, 4-[(3-chloro-4-fluorophenyl)amino]-6-[(2,6-dichlorobenzyl)amino]-1,7-naphthyridine-3-carbonitrile] displayed an IC50 under setting [1] of 24600 nM.

`N#Cc1cnc2cnc(N)cc2c1Nc1ccc(F)c(Cl)c1` [Example 35, 6-amino-4-[(3-chloro-4-fluorophenyl)amino]-1,7-naphthyridine-3-carbonitrile] displayed a concentration for half-maximal inhibition (IC50) under setting [2] of 5000 nM.

In the case of `CN1CCN(CCCNc2cc3c(Nc4ccc(Cc5ccccc5)cc4)c(C#N)cnc3cn2)CC1` [Example 22, 4-(4-benzylphenylamino)-6-(3-(4-methylpiperazin-1-yl)propylamino)-1,7-naphthyridine-3-carbonitrile], under setting [2], half-maximal inhibition (IC50) required 79 nM.

Regarding `N#Cc1cnc2cnc(NCc3cccnc3)cc2c1Nc1ccc(Cl)cc1` [Example 16, 4-(4-chlorophenylamino)-6-(pyridin-3-ylmethylamino)-1,7-naphthyridine-3-carbonitrile], under setting [2], the 50% inhibitory concentration (IC50) was above 10000 nM.

Molecule `CCC(C)(C)Nc1c(C#N)cnc2cnc(F)cc12` [Example 141, 4-[(1,1-dimethylpropyl)amino]-6-fluoro-1,7-naphthyridine-3-carbonitrile] yielded an IC50 under setting [1] above 40000 nM.

For `N#Cc1cnc2cnc(NC3CCCCCC3)cc2c1Nc1ccc(F)c(Cl)c1` [Example 144, 4-[(3-chloro-4-fluorophenyl)amino]-6-(cycloheptylamino)-1,7-naphthyridine-3-carbonitrile], under setting [1], the midpoint of inhibition, the IC50, lay at 5200 nM.
